Source: ChEMBL document CHEMBL1275529, “Improved antimicrobial activity of linezolid against vancomycin-intermediate Staphylococcus aureus” (2008)
Converted amounts (≈) assume the structure as drawn.

Legend:
Staphylococcus aureus [1] = assay: Antibacterial activity against vancomycin-susceptible Staphylococcus aureus NJ after 24 hrs by Etest method; type: functional
Staphylococcus aureus [2] = assay: Antibacterial activity against vancomycin-susceptible Staphylococcus aureus MI after 24 hrs by Etest method; type: functional
Staphylococcus aureus [3] = assay: Antibacterial activity against vancomycin-intermediate Staphylococcus aureus BR5-1 after 24 hrs by Etest method; type: functional; details: BR5-1, 24 h
Staphylococcus aureus [4] = assay: Antibacterial activity against vancomycin-intermediate Staphylococcus aureus BR4 after 24 hrs by Etest method; type: functional; details: BR4, 24 h
Staphylococcus aureus [5] = assay: Antibacterial activity against vancomycin-intermediate Staphylococcus aureus BR3 after 24 hrs by Etest method; type: functional; details: BR3, 24 h
Staphylococcus aureus [6] = assay: Antibacterial activity against vancomycin-intermediate Staphylococcus aureus BR2 after 24 hrs by Etest method; type: functional; details: BR2, 24 h
Staphylococcus aureus [7] = assay: Antibacterial activity against vancomycin-intermediate Staphylococcus aureus BR1 after 24 hrs by Etest method; type: functional; details: BR1, 24 h
Staphylococcus aureus [8] = assay: Antibacterial activity against vancomycin-intermediate Staphylococcus aureus 28160 after 24 hrs by Etest method; type: functional; details: Staphylococcus aureus, 28160, 24 h
Staphylococcus aureus [9] = assay: Antibacterial activity against vancomycin-intermediate Staphylococcus aureus LIM2 after 24 hrs by Etest method; type: functional; details: LIM2, 24 h
Staphylococcus aureus [10] = assay: Antibacterial activity against vancomycin-intermediate Staphylococcus aureus 99/3700-W after 24 hrs by Etest method; type: functional
Staphylococcus aureus [11] = assay: Antibacterial activity against vancomycin-intermediate Staphylococcus aureus 99/3759-V after 24 hrs by Etest method; type: functional
Staphylococcus aureus [12] = assay: Antibacterial activity against vancomycin-intermediate Staphylococcus aureus NJ after 24 hrs by Etest method; type: functional
Staphylococcus aureus [13] = assay: Antibacterial activity against vancomycin-intermediate Staphylococcus aureus MI after 24 hrs by Etest method; type: functional
Staphylococcus aureus [14] = assay: Antibacterial activity against vancomycin-intermediate Staphylococcus aureus Mu50 after 24 hrs by Etest method; type: functional; details: Mu50, 24 h
Staphylococcus aureus [15] = assay: Antibacterial activity against vancomycin-susceptible Staphylococcus aureus AMC11094 after 24 hrs by Etest method; type: functional; details: AMC11094, 24 h
Staphylococcus aureus [16] = assay: Antibacterial activity against vancomycin-susceptible Staphylococcus aureus 99/3759-V after 24 hrs by Etest method; type: functional
Staphylococcus aureus [17] = assay: Antibacterial activity against vancomycin-susceptible Staphylococcus aureus 99/3700-W after 24 hrs by Etest method; type: functional
Staphylococcus aureus [18] = assay: Antibacterial activity against vancomycin-susceptible Staphylococcus aureus 28160 after 24 hrs by Etest method; type: functional; details: Staphylococcus aureus, 28160, 24 h
Staphylococcus aureus [19] = assay: Antibacterial activity against vancomycin-susceptible Staphylococcus aureus BR1 after 24 hrs by Etest method; type: functional; details: BR1, 24 h
Staphylococcus aureus [20] = assay: Antibacterial activity against vancomycin-susceptible Staphylococcus aureus BR4 after 24 hrs by Etest method; type: functional; details: BR4, 24 h
Staphylococcus aureus [21] = assay: Antibacterial activity against vancomycin-susceptible Staphylococcus aureus BR5-1 after 24 hrs by Etest method; type: functional; details: BR5-1, 24 h
Staphylococcus aureus [22] = assay: Antibacterial activity against vancomycin-intermediate Staphylococcus aureus Mu50 phenotypic revertant after 24 hrs by Etest method; type: functional; details: Mu50, 24 h
Staphylococcus aureus [23] = assay: Antibacterial activity against vancomycin-intermediate Staphylococcus aureus MI phenotypic revertant after 24 hrs by Etest method; type: functional
Staphylococcus aureus [24] = assay: Antibacterial activity against vancomycin-intermediate Staphylococcus aureus 99/3759-V phenotypic revertant after 24 hrs by Etest method; type: functional
Staphylococcus aureus [25] = assay: Antibacterial activity against vancomycin-intermediate Staphylococcus aureus 99/3700-W phenotypic revertant after 24 hrs by Etest method; type: functional
Staphylococcus aureus [26] = assay: Antibacterial activity against vancomycin-intermediate Staphylococcus aureus LIM2 phenotypic revertant after 24 hrs by Etest method; type: functional; details: LIM2, 24 h
Staphylococcus aureus [27] = assay: Antibacterial activity against vancomycin-intermediate Staphylococcus aureus BR1 phenotypic revertant after 24 hrs by Etest method; type: functional; details: BR1, 24 h
Staphylococcus aureus [28] = assay: Antibacterial activity against vancomycin-intermediate Staphylococcus aureus BR5-1 phenotypic revertant after 24 hrs by Etest method; type: functional; details: BR5-1, 24 h
Staphylococcus aureus [29] = assay: Antibacterial activity against vancomycin-susceptible Staphylococcus aureus N315-LR5-P1 assessed as inhibition of bacterial growth in Mueller-Hinton broth medium; type: functional
Staphylococcus aureus [30] = assay: Antibacterial activity against vancomycin-susceptible Staphylococcus aureus N315-LR5-P1 assessed as inhibition of bacterial growth in brain heart infusion broth medium; type: functional
Staphylococcus aureus [31] = assay: Antibacterial activity against vancomycin-susceptible Staphylococcus aureus N315-LR5-P1-1 assessed as inhibition of bacterial growth in Mueller-Hinton broth medium; type: functional
Staphylococcus aureus [32] = assay: Antibacterial activity against vancomycin-susceptible Staphylococcus aureus N315-LR5-P1-3 assessed as inhibition of bacterial growth in Mueller-Hinton broth medium; type: functional
Staphylococcus aureus [33] = assay: Antibacterial activity against vancomycin-susceptible Staphylococcus aureus N315-LR5-P1-4 assessed as inhibition of bacterial growth in Mueller-Hinton broth medium; type: functional
Staphylococcus aureus [34] = assay: Antibacterial activity against vancomycin-susceptible Staphylococcus aureus N315-LR5-P1-4 assessed as inhibition of bacterial growth in brain heart infusion broth medium; type: functional; details: N315-LR5-P1-4, Brain
Staphylococcus aureus [35] = assay: Antibacterial activity against vancomycin-susceptible Staphylococcus aureus Mu50 after 24 hrs by Etest method; details: Mu50, 24 h
Staphylococcus aureus [36] = assay: Antibacterial activity against vancomycin-intermediate Staphylococcus aureus AMC11094 after 24 hrs by Etest method; details: AMC11094, 24 h
Staphylococcus aureus [37] = assay: Antibacterial activity against vancomycin-intermediate Staphylococcus aureus IL after 24 hrs by Etest method
Staphylococcus aureus [38] = assay: Antibacterial activity against vancomycin-intermediate Staphylococcus aureus PC after 24 hrs by Etest method
Staphylococcus aureus [39] = assay: Antibacterial activity against vancomycin-intermediate Staphylococcus aureus NJ phenotypic revertant after 24 hrs by Etest method
Staphylococcus aureus [40] = assay: Antibacterial activity against vancomycin-susceptible Staphylococcus aureus N315-LR5-P1-2 assessed as inhibition of bacterial growth in brain heart infusion broth medium; details: N315-LR5-P1-2, Brain
Staphylococcus aureus [41] = assay: microbe, parasite or virus in culture; details: Staphylococcus aureus, 28160, 24 h
Description: Antibacterial activity against vancomycin-intermediate Staphylococcus aureus 28160 phenotypic revertant after 24 hrs by Etest method

Row | SMILES | MIC (Staphylococcus aureus [1]) [µg/mL] | MIC (Staphylococcus aureus [2]) [µg/mL] | MIC (Staphylococcus aureus [3]) [µg/mL] | MIC (Staphylococcus aureus [4]) [µg/mL] | MIC (Staphylococcus aureus [5]) [µg/mL] | MIC (Staphylococcus aureus [6]) [µg/mL] | MIC (Staphylococcus aureus [7]) [µg/mL] | MIC (Staphylococcus aureus [11]) [µg/mL] | MIC (Staphylococcus aureus [12]) [µg/mL] | MIC (Staphylococcus aureus [13]) [µg/mL] | MIC (Staphylococcus aureus [14]) [µg/mL] | MIC (Staphylococcus aureus [17]) [µg/mL] | MIC (Staphylococcus aureus [19]) [µg/mL] | MIC (Staphylococcus aureus [20]) [µg/mL] | MIC (Staphylococcus aureus [21]) [µg/mL] | MIC (Staphylococcus aureus [22]) [µg/mL] | MIC (Staphylococcus aureus [24]) [µg/mL] | MIC (Staphylococcus aureus [25]) [µg/mL] | MIC (Staphylococcus aureus [27]) [µg/mL] | MIC (Staphylococcus aureus [29]) [µg/mL] | other results
1 | CC(=O)NC[C@H]1CN(c2ccc(N3CCOCC3)c(F)c2)C(=O)O1 [LINEZOLID] | 3 (≈ 8.89 µM) | 3 (≈ 8.89 µM) | 1.5 (≈ 4.45 µM) | 1.5 (≈ 4.45 µM) | 1 (≈ 2.96 µM) | 1 (≈ 2.96 µM) | 1.25 (≈ 3.71 µM) | 1 (≈ 2.96 µM) | 1.25 (≈ 3.71 µM) | 1.5 (≈ 4.45 µM) | 0.38 (≈ 1.13 µM) | 3 (≈ 8.89 µM) | 1.5 (≈ 4.45 µM) | 3 (≈ 8.89 µM) | 3 (≈ 8.89 µM) | 1.5 (≈ 4.45 µM) | 1.5 (≈ 4.45 µM) | 1.25 (≈ 3.71 µM) | 1.5 (≈ 4.45 µM) | 3 (≈ 8.89 µM) | MIC (Staphylococcus aureus [8]): 1.5 µg/mL (≈ 4.45 µM); MIC (Staphylococcus aureus [9]): 1 µg/mL (≈ 2.96 µM); MIC (Staphylococcus aureus [10]): 1 µg/mL (≈ 2.96 µM); MIC (Staphylococcus aureus [15]): 3 µg/mL (≈ 8.89 µM); MIC (Staphylococcus aureus [16]): 3 µg/mL (≈ 8.89 µM); MIC (Staphylococcus aureus [18]): 3 µg/mL (≈ 8.89 µM); MIC (Staphylococcus aureus [23]): 1.5 µg/mL (≈ 4.45 µM); MIC (Staphylococcus aureus [26]): 1.5 µg/mL (≈ 4.45 µM); MIC (Staphylococcus aureus [28]): 3 µg/mL (≈ 8.89 µM); MIC (Staphylococcus aureus [30]): 3 µg/mL (≈ 8.89 µM); MIC (Staphylococcus aureus [31]): 2.5 µg/mL (≈ 7.41 µM); MIC (Staphylococcus aureus [32]): 1.75 µg/mL (≈ 5.19 µM); MIC (Staphylococcus aureus [33]): 1.5 µg/mL (≈ 4.45 µM); MIC (Staphylococcus aureus [34]): 1.5 µg/mL (≈ 4.45 µM)
2 | CN[C@H](CC(C)C)C(=O)N[C@H]1C(=O)N[C@@H](CC(N)=O)C(=O)N[C@H]2C(=O)N[C@H]3C(=O)N[C@H](C(=O)N[C@H](C(=O)O)c4cc(O)cc(O)c4-c4cc3ccc4O)[C@H](O)c3ccc(c(Cl)c3)Oc3cc2cc(c3O[C@@H]2O[C@H](CO)[C@@H](O)[C@H](O)[C@H]2O[C@H]2C[C@](C)(N)[C@H](O)[C@H](C)O2)Oc2ccc(cc2Cl)[C@H]1O [VANCOMYCIN] | 3 (≈ 2.07 µM) | 1.25 (≈ 0.863 µM) | 5 (≈ 3.45 µM) | 6 (≈ 4.14 µM) | 8 (≈ 5.52 µM) | 6 (≈ 4.14 µM) | 6 (≈ 4.14 µM) | 5 (≈ 3.45 µM) | 8 (≈ 5.52 µM) | 8 (≈ 5.52 µM) | 6 (≈ 4.14 µM) | 1.5 (≈ 1.04 µM) | 1.5 (≈ 1.04 µM) | 1.5 (≈ 1.04 µM) | 1.25 (≈ 0.863 µM) | 8 (≈ 5.52 µM) | 8 (≈ 5.52 µM) | 3 (≈ 2.07 µM) | 3 (≈ 2.07 µM) | 0.75 (≈ 0.518 µM) | MIC (Staphylococcus aureus [35]): 2.5 µg/mL (≈ 1.73 µM); MIC (Staphylococcus aureus [36]): 6 µg/mL (≈ 4.14 µM); MIC (Staphylococcus aureus [37]): 6 µg/mL (≈ 4.14 µM); MIC (Staphylococcus aureus [38]): 6 µg/mL (≈ 4.14 µM); MIC (Staphylococcus aureus [39]): 5 µg/mL (≈ 3.45 µM); MIC (Staphylococcus aureus [30]): 1.25 µg/mL (≈ 0.863 µM); MIC (Staphylococcus aureus [31]): 1.25 µg/mL (≈ 0.863 µM); MIC (Staphylococcus aureus [40]): 3 µg/mL (≈ 2.07 µM); MIC (Staphylococcus aureus [32]): 2.5 µg/mL (≈ 1.73 µM); MIC (Staphylococcus aureus [33]): 3 µg/mL (≈ 2.07 µM); MIC (Staphylococcus aureus [34]): 5 µg/mL (≈ 3.45 µM); MIC (Staphylococcus aureus [41]): 3 µg/mL (≈ 2.07 µM)
